The values that follow come from patent US20240352010A1, “SUBSTITUTED 1,2,4-THIADIAZOLYL NICOTINAMIDES, SALTS OR N-OXIDES THEREOF AND THEIR USE AS HERBICIDALLY ACTIVE SUBSTANCES” (BayerAktiengesellschaft, priority 2021, published 2024).

Holding throughout (type): in vivo
One assay has as its system Lolium rigidum (LOLRI). Nature of the assay: Herbicidal post-emergence action, LOLRI. An excerpt:
(§1) Seeds of mono- and dicotyledonous weed plants were sown in plastic pots (double sowings with one species of mono- and one species of dicotyledonous weed plants per pot), in sandy loam, covered with soil and grown under controlled growth conditions. 2 to 3 weeks after sowing, the test plants were sprayed in the single-leaf stage. The compounds according to the invention, formulated in the form of wettable powders (WP) or as emulsifiable concentrates (EC), were sprayed onto the green plant parts as an aqueous suspension or as an emulsion, with the addition of 0.5% of an additive, at an application rate of 600 litres of water per hectare (converted). The test plants were placed in the greenhouse for ca. 3 weeks under optimum growth conditions, and then the effect of the preparations is assessed visually in comparison with untreated controls (herbicidal effect in percent (%): 100% effect=plants have died, 0% effect=as control plants). […]

The subject of assay [1] is Echinochloa crus-galli (ECHCG). Briefly: Herbicidal pre-emergence action, ECHCG. An excerpt:
(§2) Seeds of mono- and dicotyledonous weed plants were sown in plastic pots (double sowings with one species of mono- and one species of dicotyledonous weed plants per pot), in sandy loam, and covered with soil. The compounds according to the invention, formulated in the form of wettable powders (WP) or as emulsifiable concentrates (EC), were applied to the surface of the covering soil as an aqueous suspension or as an emulsion, with the addition of 0.5% of an additive, at an application rate of 600 litres of water per hectare (converted). Following treatment, the pots were placed in a greenhouse and kept under optimum growth conditions for the test plants. The visual grading of the damage to the test plants is carried out after ca. 3 weeks in comparison to untreated controls (herbicidal effect in percent (%): 100% effect=plants have died, 0% effect=as control plants). Seeds of mono- and dicotyledonous weed plants were sown in plastic pots (double sowings with one species of mono- and one species of dicotyledonous weed plants per pot), in sandy loam, and covered with soil. The compounds according to the invention, formulated in the form of wettable powders (WP) or as emulsifiable concentrates (EC), were applied to the surface of the covering soil as an aqueous suspension or as an emulsion, with the addition of 0.5% of an additive, at an application rate of 600 litres of water per hectare (converted). Following treatment, the pots were placed in a greenhouse and kept under optimum growth conditions for the test plants. The visual grading of the damage to the test plants is carried out after ca. 3 weeks in comparison to untreated controls (herbicidal effect in percent (%): 100% effect=plants have died, 0% effect=as control plants).

Assay [2] deals with Matricaria inodora (MATIN). Briefly: Herbicidal post-emergence action, MATIN.
Text: as §1

For assay [3], the system named is Abutilon theophrasti (ABUTH). Nature of the assay: Herbicidal pre-emergence action, ABUTH. Particulars: 1280 g/ha, visual grading after ca. 3 weeks vs untreated controls (Table A1). The source says:
Seeds of mono- and dicotyledonous weed plants were sown in plastic pots (double sowings with one species of mono- and one species of dicotyledonous weed plants per pot), in sandy loam, and covered with soil. The compounds according to the invention, formulated in the form of wettable powders (WP) or as emulsifiable concentrates (EC), were applied to the surface of the covering soil as an aqueous suspension or as an emulsion, with the addition of 0.5% of an additive, at an application rate of 600 litres of water per hectare (converted). Following treatment, the pots were placed in a greenhouse and kept under optimum growth conditions for the test plants. The visual grading of the damage to the test plants is carried out after ca. 3 weeks in comparison to untreated controls (herbicidal effect in percent (%): 100% effect=plants have died, 0% effect=as control plants).

The test system of assay [4] is Stellaria media (STEME). Briefly: Herbicidal post-emergence action, STEME.
Text: as §1

Assay [5] concerns Matricaria inodora (MATIN). Nature of the assay: Herbicidal pre-emergence action, MATIN.
Text: as §2

Assay [6] deals with Amaranthus retroflexus (AMARE). Nature of the assay: Herbicidal pre-emergence action, AMARE.
Text: as §2

For assay [7], the system named is Echinochloa crus-galli (ECHCG). Briefly: Herbicidal post-emergence action, ECHCG.
Text: as §1

In the next assay the test system is Kochia scoparia (KCHSC). Briefly: Herbicidal pre-emergence action, KCHSC.
Text: as §2

In assay [8] the test system is Amaranthus retroflexus (AMARE). Nature of the assay: Herbicidal post-emergence action, AMARE.
Text: as §1

In assay [9] the test system is Veronica persica (VERPE). Briefly: Herbicidal pre-emergence action, VERPE.
Text: as §2

Assay [10] relates to Stellaria media (STEME). Briefly: Herbicidal pre-emergence action, STEME.
Text: as §2

For assay [11], the system named is Veronica persica (VERPE). Briefly: Herbicidal post-emergence action, VERPE.
Text: as §1

Where [12] appears, read: 1280 g/ha, assessed visually after ca. 3 weeks vs untreated controls (Table B5).
Setting [13] is: 1280 g/ha, visual grading after ca. 3 weeks vs untreated controls (Table A3).
Setting [14] is: 320 g/ha, assessed visually after ca. 3 weeks vs untreated controls (Table D2).
The mark [15] stands for this setting: 1280 g/ha, assessed visually after ca. 3 weeks vs untreated controls (Table B6).
Where [16] appears, read: 320 g/ha, assessed visually after ca. 3 weeks vs untreated controls (Table D4).
Where [17] appears, read: 1280 g/ha, assessed visually after ca. 3 weeks vs untreated controls (Table B9).
[18] abbreviates: 320 g/ha, visual grading after ca. 3 weeks vs untreated controls (Table C3).
The mark [19] stands for this setting: 1280 g/ha, visual grading after ca. 3 weeks vs untreated controls (Table A6).
[20] abbreviates: 320 g/ha, visual grading after ca. 3 weeks vs untreated controls (Table C8).
The mark [21] stands for this setting: 1280 g/ha, visual grading after ca. 3 weeks vs untreated controls (Table A11).
The mark [22] stands for this setting: 1280 g/ha, assessed visually after ca. 3 weeks vs untreated controls (Table B3).
The mark [23] stands for this setting: 320 g/ha, visual grading after ca. 3 weeks vs untreated controls (Table C1).
Where [24] appears, read: 1280 g/ha, visual grading after ca. 3 weeks vs untreated controls (Table A4).
The mark [25] stands for this setting: 320 g/ha, assessed visually after ca. 3 weeks vs untreated controls (Table D6).
Setting [26] is: 1280 g/ha, assessed visually after ca. 3 weeks vs untreated controls (Table B11).
Setting [27] is: 320 g/ha, visual grading after ca. 3 weeks vs untreated controls (Table C7).
Where [28] appears, read: 1280 g/ha, visual grading after ca. 3 weeks vs untreated controls (Table A10).
Setting [29] is: 320 g/ha, visual grading after ca. 3 weeks vs untreated controls (Table C6).
The mark [30] stands for this setting: 1280 g/ha, visual grading after ca. 3 weeks vs untreated controls (Table A9).
Where [31] appears, read: 320 g/ha, assessed visually after ca. 3 weeks vs untreated controls (Table D5).
Where [32] appears, read: 1280 g/ha, assessed visually after ca. 3 weeks vs untreated controls (Table B10).

For `O=C(Nc1ncns1)c1c(C2CC2)ccnc1Cl` [Example I-003, 2-chloro-4-cyclopropyl-N-(1,2,4-thiadiazol-5-yl)pyridine-3-carboxamide], the “herbicidal effect in percent, LOLRI” value with Lolium rigidum (LOLRI) (setting [12]) amounted to 90%. Further, the “herbicidal effect in percent, ECHCG” value in assay [1] (setting [13]) and in assay [7] (setting [22]) was 90% throughout. The “herbicidal effect in percent, MATIN” value is on record as 90% in [2] (setting [14]), 100% in assay [2] (setting [15]), 100% in assay [5] (setting [18]) and 100% in [5] (setting [19]). In addition, the “herbicidal effect in percent, ABUTH” value in [3] was found to be 90%. Besides, the “herbicidal effect in percent, STEME” value in the assay with Stellaria media (STEME) [4] (setting [16]), with Stellaria media (STEME) [4] (setting [17]), with Stellaria media (STEME) [10] (setting [29]) and in the assay on Stellaria media (STEME) [10] (setting [30]) was 100% in each case. Besides, the “herbicidal effect in percent, AMARE” value amounted to 90% in [6] (setting [20]), 100% in assay [6] (setting [21]), 100% in assay [8] (setting [25]) and 100% in assay [8] (setting [26]). In addition, the “herbicidal effect in percent, KCHSC” value in the assay on Kochia scoparia (KCHSC) (setting [23]) came to 90%; in the assay with Kochia scoparia (KCHSC) (setting [24]) it was 100%. The “herbicidal effect in percent, VERPE” value in the assay on Veronica persica (VERPE) [9] (setting [27]) came out at 90%; in the assay on Veronica persica (VERPE) [9] (setting [28]) it was 90%; with Veronica persica (VERPE) [11] (setting [31]), 90%; with Veronica persica (VERPE) [11] (setting [32]), 100%.
Consider `O=C(Nc1ncns1)c1c(C2CC2)ccnc1F` [Example I-005], for which the “herbicidal effect in percent, LOLRI” value came to 100% with Lolium rigidum (LOLRI) (320 g/ha, assessed visually after ca. 3 weeks vs untreated controls (Table D9)) and 100% with Lolium rigidum (LOLRI) (setting [12]). Moreover, the “herbicidal effect in percent, ECHCG” value in [1] (320 g/ha, visual grading after ca. 3 weeks vs untreated controls (Table C9)) was found to be 90%; in assay [1] (setting [13]), 90%; in [7] (setting [22]), 90%. In addition, the “herbicidal effect in percent, MATIN” value in assay [2] (setting [14]), in assay [2] (setting [15]), in assay [5] (setting [18]) and in assay [5] (setting [19]) was 100% throughout. Moreover, the “herbicidal effect in percent, ABUTH” value in [3] stood at 90%. Moreover, the “herbicidal effect in percent, STEME” value in the assay with Stellaria media (STEME) [4] (setting [16]), in the assay on Stellaria media (STEME) [4] (setting [17]), in the assay on Stellaria media (STEME) [10] (setting [29]) and in the assay on Stellaria media (STEME) [10] (setting [30]) was 100% each time. For the same compound, the “herbicidal effect in percent, AMARE” value in assay [6] (setting [20]), in assay [6] (setting [21]), in [8] (setting [25]) and in [8] (setting [26]) was 100% throughout. In addition, the “herbicidal effect in percent, KCHSC” value in the assay with Kochia scoparia (KCHSC) (setting [23]) and with Kochia scoparia (KCHSC) (setting [24]) was 100% in each case. Also, the “herbicidal effect in percent, VERPE” value is reported as 90% with Veronica persica (VERPE) [9] (setting [27]), 100% in the assay on Veronica persica (VERPE) [9] (setting [28]), 100% in the assay on Veronica persica (VERPE) [11] (setting [31]) and 100% in the assay with Veronica persica (VERPE) [11] (setting [32]).
Regarding `O=C(Nc1nc(Cl)ns1)c1c(C2CC2)ccnc1Cl` [Example I-013], in the assay with Lolium rigidum (LOLRI) (setting [12]), the “herbicidal effect in percent, LOLRI” value was found to be 90%. Further, the “herbicidal effect in percent, ECHCG” value is listed as 90% in assay [1] (setting [13]); 90% in assay [7] (320 g/ha, assessed visually after ca. 3 weeks vs untreated controls (Table D7)); 90% in assay [7] (setting [22]). Besides, the “herbicidal effect in percent, MATIN” value worked out at 90% in assay [2] (setting [14]), 90% in [2] (setting [15]), 90% in [5] (setting [18]) and 100% in assay [5] (setting [19]). In addition, in [3], the “herbicidal effect in percent, ABUTH” value is 90%. In addition, the “herbicidal effect in percent, STEME” value with Stellaria media (STEME) [4] (setting [16]) was found to be 90%; in the assay with Stellaria media (STEME) [4] (setting [17]) it was 90%; with Stellaria media (STEME) [10] (setting [29]), 90%; in the assay with Stellaria media (STEME) [10] (setting [30]), 100%. Further, the “herbicidal effect in percent, AMARE” value in assay [6] (setting [21]), in assay [8] (setting [25]) and in assay [8] (setting [26]) was 90% in each case. Moreover, the “herbicidal effect in percent, KCHSC” value in the assay with Kochia scoparia (KCHSC) (setting [24]) is given as 90%. For the same compound, the “herbicidal effect in percent, VERPE” value with Veronica persica (VERPE) [9] (setting [28]), in the assay with Veronica persica (VERPE) [11] (setting [31]) and in the assay on Veronica persica (VERPE) [11] (setting [32]) was 90% in each case.
